Patent US20230134843A1, “TREATMENT OF STEM CELL DEFICIENCY” (OSPEDALE SAN RAFFAELE S.R.L., priority 2020, published 2023)
Entries after “also recorded” stand apart in the source; their conditions may differ.

How the values were obtained:
γH2AX = test: Western blot of γH2AX as senescence marker in corneal epithelium, disepithelization model (Example 1); format: in vivo, mice
Description: Eight-week-old C57BL6/N (Charles River, Calco, Italy) (WT mice, n=8) and B6.Cg-Tac1tm1Bbm/J (Jackson Laboratories, Bar Harbor, Me., USA) (TAC1-KO mice, n=8) male mice were used in all experiments. Each animal was anesthetized with intraperitoneal injection of tribromoethanol (250 mg/kg) and a topical anesthetic was applied to their ocular surface prior to the surgical procedure. Disepithelization was performed based on the model previously described, using a blunt spatula to scrap the entire corneal epithelium from limbus to limbus. After wounding, eyes were treated with ophthalmic moxifloxacin 1 time/day for 1 week to […]. Fourteen days after disepithelization mice were euthanized using carbon dioxide inhalation and subsequent cervical dislocation. Corneas were collected for immunostaining and western blot analysis. […]
For Western Blot analysis, corneal epithelium was isolated after 30 minutes of EDTA treatment (Sigma-Aldrich Corp., St. Louis, Mo., USA) at 37° C. […] Bands were quantified using Image Lab™ software (Version 6.0.1, Bio-Rad Laboratories, Hercules, Calif., USA).
The expression of p70 S6 Kinase (P70S6), phospho-p70 S6 Kinase (pP70S6), and phospho-histone 2-AX (γH2AX) was evaluated by Western Blot, as previously described in section 2.9. […] Bands were quantified using Image J software (National Institutes of Health, Bethesda, Md., USA).

NK1R = biological target: T1, NK1R (Mus musculus, UniProt P30548); test: Epithelial wound closure by corneal fluorescein staining, stem cell deficiency model (Example 2); format: in vivo, mice
T1 construct: NK1R is expressed by both corneal epithelial and stem cell-like cells; from tissue; host or cells: cornea / ocular surface of live C57BL6/N mice (topical dosing in vivo)
Excerpt: Eight-week-old male mice C57BL6/N (Charles River, Calco, Italy) (WT mice, n=18) and Tac1-deficient B6.Cg-Tac1tm1Bbm/J (Jackson Laboratories, Bar Harbor, Me., USA) (TAC1-KO mice, n=18) were used in all experiments. TAC1-KO mice are homozygous null for the Tac1 gene. […] The corneal thickness and transparency as well as the corneal nerve length are similar to C57BL/6 mice [Barbariga M, Rabiolo A, Fonteyne P, Bignami F, Rama P, Ferrari G. The effect of aging on nerve morphology and substance P expression in mouse and human corneas. Investig Ophthalmol Vis Sci 2018; 59:5329-35. https://doi.org/10.1167/iovs.18-24707.]. […]
Every day after disepithelization, in vivo corneal photographs were taken using a digital camera (EOS 30D; Canon, Tokyo, Japan) attached to a slit-lamp microscope (Photoslitmap 40 SL-P; Zeiss, Oberkochen, Germany) to assess corneal condition. Corneal opacity was evaluated using a grading score (from 0-4; 0=completely clear, 4=completely opaque) previously described [Yoeruek E, Deuter C, Gieselmann S, Saygili O, Spitzer M S, Tatar O, et al. Long-term visual acuity and its predictors after cataract surgery in patients with uveitis. […] The percentage of green fluorescent area on the total corneal area was evaluated by analyzing images by Image J software (National Institutes of Health, Bethesda, Md., USA).

T1 sequence (P30548 whole entry): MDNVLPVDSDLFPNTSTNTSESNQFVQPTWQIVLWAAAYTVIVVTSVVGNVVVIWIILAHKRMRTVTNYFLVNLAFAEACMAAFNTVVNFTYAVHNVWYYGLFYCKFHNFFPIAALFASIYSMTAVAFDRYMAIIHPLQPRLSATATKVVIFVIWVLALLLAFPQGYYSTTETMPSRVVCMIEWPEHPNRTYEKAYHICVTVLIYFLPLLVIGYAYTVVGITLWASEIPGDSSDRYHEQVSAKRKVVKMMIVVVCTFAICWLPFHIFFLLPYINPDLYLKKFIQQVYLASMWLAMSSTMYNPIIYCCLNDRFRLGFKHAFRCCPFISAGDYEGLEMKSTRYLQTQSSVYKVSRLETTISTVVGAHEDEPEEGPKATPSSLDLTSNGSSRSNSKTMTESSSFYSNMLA

Structure (SMILES): C[C@@H](O[C@H]1OCCN(Cc2nc(=O)n(P(=O)(O)O)[nH]2)[C@H]1c1ccc(F)cc1)c1cc(C(F)(F)F)cc(C(F)(F)F)c1 [Fosaprepitant, [3-{[(2R,3S)-2-[(1R)-1-[3,5-bis(trifluoromethyl)phenyl]ethoxy]-3-(4-fluorophenyl)morpholin-4-yl]methyl}-5-oxo-2H-1,2,4-triazol-1-yl]phosphonic acid]
- H2AX expression in comparison to WT (in words) (γH2AX; Fosaprepitant 10 mg/mL (WT-FOSA), western blot): decreased
- decreased γH2AX expression in comparison to WT (γH2AX; Fosaprepitant 10 mg/mL topically four times a day for 14 days (WT-FOSA), p<0.05): 26%
- wound closure compared to WT (NK1R; Fosaprepitant 0.1 mg/mL (FOSA 0.1) topically 4 times/day for 16 days): did not show any improvement; also recorded: no improvement
- wound closure rate compared to WT (NK1R; Fosaprepitant 1 mg/mL (FOSA 1) topically 4 times/day for 16 days, from day five, p<0.05): significant improvement; also recorded: significant faster epithelial wound closure
